In PMC5392334, “Discovery and characterization of a novel irreversible EGFR mutants selective and potent kinase inhibitor CHMFL-EGFR-26 with a distinct binding mode” (Oncotarget, 2017):
Where two headings read alike, the source gives them in different places.

Experiments:
PFTK1 = target: T1, PFTK1 (Homo sapiens, UniProt O94921); assay: KinomeScan; format: binding; conditions: read-out: % control
T1 construct: purchased DiscoveRx KINOMEscan

LOK = target: T2, LOK (Homo sapiens, UniProt O94804); assay: KinomeScan; format: binding; conditions: read-out: % control
T2 construct: purchased DiscoveRx KINOMEscan

[1] = target: T3, ABL1(F317I)-nonphosphorylated (Homo sapiens, UniProt P00519, F317I); assay: KinomeScan; format: binding; conditions: read-out: % control
T3 construct: purchased DiscoveRx KINOMEscan

NDR1 = target: T4, NDR1 (Homo sapiens, UniProt Q15208); assay: KinomeScan; format: binding; conditions: read-out: % control
T4 construct: purchased DiscoveRx KINOMEscan

p38-alpha = target: T5, p38-alpha (Homo sapiens, UniProt Q16539); assay: KinomeScan; format: binding; conditions: read-out: % control
T5 construct: purchased DiscoveRx KINOMEscan

RIPK2 = target: T6, RIPK2 (Homo sapiens, UniProt O43353); assay: KinomeScan; format: binding; conditions: read-out: % control
T6 construct: purchased DiscoveRx KINOMEscan

IRAK1 = target: T7, IRAK1 (Homo sapiens, UniProt P51617); assay: KinomeScan; format: binding; conditions: read-out: % control
T7 construct: purchased DiscoveRx KINOMEscan

MEK3 = target: T8, MEK3 (Homo sapiens, UniProt P46734); assay: KinomeScan; format: binding; conditions: read-out: % control
T8 construct: purchased DiscoveRx KINOMEscan

MAST1 = target: T9, MAST1 (Homo sapiens, UniProt Q9Y2H9); assay: KinomeScan; format: binding; conditions: read-out: % control
T9 construct: purchased DiscoveRx KINOMEscan

BRAF(V600E) = target: T10, BRAF(V600E) (Homo sapiens, UniProt P15056, V600E); assay: KinomeScan; format: binding; conditions: read-out: % control
T10 construct: purchased DiscoveRx KINOMEscan

KIT(V559D,T670I) = target: T11, KIT(V559D,T670I) (Homo sapiens, UniProt P10721, T670I/V559D); assay: KinomeScan; format: binding; conditions: read-out: % control
T11 construct: purchased DiscoveRx KINOMEscan

MYLK2 = target: T12, MYLK2 (Homo sapiens, UniProt Q9H1R3); assay: KinomeScan; format: binding; conditions: read-out: % control
T12 construct: purchased DiscoveRx KINOMEscan

PIK3CA = target: T13, PIK3CA (Homo sapiens, UniProt P42336); assay: KinomeScan; format: binding; conditions: read-out: % control
T13 construct: purchased DiscoveRx KINOMEscan

[2] = target: T14, JAK2(JH1domain-catalytic) (Homo sapiens, UniProt O60674); assay: KinomeScan; format: binding; conditions: read-out: % control
T14 construct: JAK2(JH1domain-catalytic); purchased DiscoveRx KINOMEscan

H1975 (EGFRL858R/T790M) = assay: Anti-proliferation, NSCLC cell lines (CellTiter-Glo); format: cell-based, human
Protocol: The human cancer cell lines H1975, HCC827, H2122, CHO, CHL and H1355 were purchased from the American Type Culture Collection (ATCC) (Manassas, VA, USA). PC9 cell line was purchased from the Sigma-Aldrich (St. Louis, MO, USA). A549, H3255 were purchased from Cobioer Biosciences CO., LTD (Nanjing, China). […] A549 and H1355 were cultured in F-12K Nutrient Mixture (kaighn's Modification) (Gibco, USA) with 10% FBS and supplemented with 2% L-glutamine and 1% pen/strep. H3255 was cultured in BEGM media (LONZA, USA) with 10% FBS and supplemented with 2% L-glutamine and 1% pen/strep.

[3] = Pharmacokinetic properties in rats; format: in vivo; conditions: for MRT last: read-out: MRT(0-t)
Protocol: To further investigate the effect of CHMFL-EGFR-26 in vivo, we first examined its pharmacokinetic properties in rats (Supplementary Table 5). The half-life is 0.8 hour by oral dosing which is short but considering the irreversible binding mode, this short half-life was preferred. […]

EGFR(G719C) = target: T15, EGFR(G719C) (Homo sapiens, UniProt P00533, G719C); assay: KinomeScan; format: binding; conditions: read-out: % control
T15 construct: purchased DiscoveRx KINOMEscan

AURKA = target: T16, AURKA (Homo sapiens, UniProt O14965); assay: KinomeScan; format: binding; conditions: read-out: % control
T16 construct: purchased DiscoveRx KINOMEscan

VEGFR2 = target: T17, VEGFR2 (Homo sapiens, UniProt P35968); assay: KinomeScan; format: binding; conditions: read-out: % control
T17 construct: purchased DiscoveRx KINOMEscan

PIK3C2G = target: T18, PIK3C2G (Homo sapiens, UniProt O75747); assay: KinomeScan; format: binding; conditions: read-out: % control
T18 construct: purchased DiscoveRx KINOMEscan

AURKB = target: T19, AURKB (Homo sapiens, UniProt Q96GD4); assay: KinomeScan; format: binding; conditions: read-out: % control
T19 construct: purchased DiscoveRx KINOMEscan

STK35 = target: T20, STK35 (Homo sapiens, UniProt Q8TDR2); assay: KinomeScan; format: binding; conditions: read-out: % control
T20 construct: purchased DiscoveRx KINOMEscan

FLT3(D835H) = target: T21, FLT3(D835H) (Homo sapiens, UniProt P36888, D835H); assay: KinomeScan; format: binding; conditions: read-out: % control
T21 construct: purchased DiscoveRx KINOMEscan

SYK = target: T22, SYK (Homo sapiens, UniProt P43405); assay: KinomeScan; format: binding; conditions: read-out: % control
T22 construct: purchased DiscoveRx KINOMEscan

LZK = target: T23, LZK (Homo sapiens, UniProt O43283); assay: KinomeScan; format: binding; conditions: read-out: % control
T23 construct: purchased DiscoveRx KINOMEscan

FGFR4 = target: T24, FGFR4 (Homo sapiens, UniProt P22455); assay: KinomeScan; format: binding; conditions: read-out: % control
T24 construct: purchased DiscoveRx KINOMEscan

[4] = target: T25, RSK1(Kin.Dom.1-N-terminal) (Homo sapiens, UniProt Q15418); assay: KinomeScan; format: binding; conditions: read-out: % control
T25 construct: RSK1(Kin.Dom.1-N-terminal); purchased DiscoveRx KINOMEscan

BMPR1B = target: T26, BMPR1B (Homo sapiens, UniProt O00238); assay: KinomeScan; format: binding; conditions: read-out: % control
T26 construct: purchased DiscoveRx KINOMEscan

CDK5 = target: T27, CDK5 (Homo sapiens, UniProt Q00535); assay: KinomeScan; format: binding; conditions: read-out: % control
T27 construct: purchased DiscoveRx KINOMEscan

CLK1 = target: T28, CLK1 (Homo sapiens, UniProt P49759); assay: KinomeScan; format: binding; conditions: read-out: % control
T28 construct: purchased DiscoveRx KINOMEscan

BMX = target: T29, BMX (Homo sapiens, UniProt P51813); assay: KinomeScan; format: binding; conditions: read-out: % control
T29 construct: purchased Invitrogen (SelectScreen service)

CHO = assay: Anti-proliferation, normal cells (CellTiter-Glo); conditions: Cricetulus griseus, 72 h
Protocol: Cells were grown in 96-well culture plates (2500-3000/well). For adherent cell lines, compounds of various concentrations were added into the plates after cells were cultured for 12 hours. Cell proliferation was determined after treatment with compounds for 72 hours. Cell viability was measured using the CellTiter–Glo assay (Promega, USA) according to the manufacturer's instructions, and luminescence was measured in a multi-label reader (Envision, PerkinElmer, USA). Data were normalized to control groups (DMSO) and represented by the mean of three independent measurements with standard error <20%. GI50 values were calculated using Prism 5.0 (GraphPad Software, San Diego, CA).

[5] = rat, in vivo, po, P.O. (10mg/kg)

T10 sequence (P15056 whole entry V600E): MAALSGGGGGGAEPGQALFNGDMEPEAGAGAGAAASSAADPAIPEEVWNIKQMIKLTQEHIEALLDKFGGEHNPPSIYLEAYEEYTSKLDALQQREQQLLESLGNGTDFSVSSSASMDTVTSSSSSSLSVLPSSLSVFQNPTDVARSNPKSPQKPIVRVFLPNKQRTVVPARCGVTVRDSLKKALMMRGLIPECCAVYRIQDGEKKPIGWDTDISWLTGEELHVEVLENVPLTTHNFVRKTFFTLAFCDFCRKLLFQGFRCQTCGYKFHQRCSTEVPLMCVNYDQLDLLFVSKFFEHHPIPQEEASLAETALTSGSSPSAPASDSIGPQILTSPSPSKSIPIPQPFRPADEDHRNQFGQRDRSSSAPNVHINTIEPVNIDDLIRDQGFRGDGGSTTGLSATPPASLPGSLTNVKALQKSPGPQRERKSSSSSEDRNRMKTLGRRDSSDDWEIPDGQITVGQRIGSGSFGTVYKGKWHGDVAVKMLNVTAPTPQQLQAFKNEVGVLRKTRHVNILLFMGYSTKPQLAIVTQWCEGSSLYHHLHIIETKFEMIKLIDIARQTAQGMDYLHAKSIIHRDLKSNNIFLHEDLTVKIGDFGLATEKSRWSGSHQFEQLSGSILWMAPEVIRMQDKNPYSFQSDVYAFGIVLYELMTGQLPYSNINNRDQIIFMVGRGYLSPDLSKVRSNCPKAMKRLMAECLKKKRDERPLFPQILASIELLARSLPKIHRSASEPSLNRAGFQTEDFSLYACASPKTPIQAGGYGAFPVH
T25 sequence (Q15418 1-391 limits assumed): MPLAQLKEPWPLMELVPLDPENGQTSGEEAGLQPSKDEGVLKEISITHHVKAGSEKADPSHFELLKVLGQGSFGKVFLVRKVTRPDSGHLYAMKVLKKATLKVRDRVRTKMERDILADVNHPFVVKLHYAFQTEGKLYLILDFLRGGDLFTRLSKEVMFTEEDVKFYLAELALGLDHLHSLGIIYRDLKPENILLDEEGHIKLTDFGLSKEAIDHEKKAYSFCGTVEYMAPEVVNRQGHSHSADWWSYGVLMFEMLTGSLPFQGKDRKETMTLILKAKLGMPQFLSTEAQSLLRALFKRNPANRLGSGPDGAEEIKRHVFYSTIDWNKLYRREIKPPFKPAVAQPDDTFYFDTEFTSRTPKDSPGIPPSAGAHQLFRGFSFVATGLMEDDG
T20 sequence (Q8TDR2 whole entry): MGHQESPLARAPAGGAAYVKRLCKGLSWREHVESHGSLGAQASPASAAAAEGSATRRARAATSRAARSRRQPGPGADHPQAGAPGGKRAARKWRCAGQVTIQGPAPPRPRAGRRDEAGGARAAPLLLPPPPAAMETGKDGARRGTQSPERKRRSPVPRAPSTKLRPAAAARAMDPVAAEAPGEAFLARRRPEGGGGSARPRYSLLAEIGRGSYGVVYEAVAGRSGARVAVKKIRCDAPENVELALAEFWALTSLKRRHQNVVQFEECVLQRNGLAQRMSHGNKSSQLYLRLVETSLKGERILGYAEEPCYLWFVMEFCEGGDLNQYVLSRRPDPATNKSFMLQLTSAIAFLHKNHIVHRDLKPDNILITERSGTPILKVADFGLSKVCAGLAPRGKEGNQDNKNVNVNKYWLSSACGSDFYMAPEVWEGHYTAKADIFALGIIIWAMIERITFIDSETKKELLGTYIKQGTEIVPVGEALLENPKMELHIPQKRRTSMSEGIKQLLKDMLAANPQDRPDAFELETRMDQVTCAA
T3 sequence (P00519 whole entry F317I): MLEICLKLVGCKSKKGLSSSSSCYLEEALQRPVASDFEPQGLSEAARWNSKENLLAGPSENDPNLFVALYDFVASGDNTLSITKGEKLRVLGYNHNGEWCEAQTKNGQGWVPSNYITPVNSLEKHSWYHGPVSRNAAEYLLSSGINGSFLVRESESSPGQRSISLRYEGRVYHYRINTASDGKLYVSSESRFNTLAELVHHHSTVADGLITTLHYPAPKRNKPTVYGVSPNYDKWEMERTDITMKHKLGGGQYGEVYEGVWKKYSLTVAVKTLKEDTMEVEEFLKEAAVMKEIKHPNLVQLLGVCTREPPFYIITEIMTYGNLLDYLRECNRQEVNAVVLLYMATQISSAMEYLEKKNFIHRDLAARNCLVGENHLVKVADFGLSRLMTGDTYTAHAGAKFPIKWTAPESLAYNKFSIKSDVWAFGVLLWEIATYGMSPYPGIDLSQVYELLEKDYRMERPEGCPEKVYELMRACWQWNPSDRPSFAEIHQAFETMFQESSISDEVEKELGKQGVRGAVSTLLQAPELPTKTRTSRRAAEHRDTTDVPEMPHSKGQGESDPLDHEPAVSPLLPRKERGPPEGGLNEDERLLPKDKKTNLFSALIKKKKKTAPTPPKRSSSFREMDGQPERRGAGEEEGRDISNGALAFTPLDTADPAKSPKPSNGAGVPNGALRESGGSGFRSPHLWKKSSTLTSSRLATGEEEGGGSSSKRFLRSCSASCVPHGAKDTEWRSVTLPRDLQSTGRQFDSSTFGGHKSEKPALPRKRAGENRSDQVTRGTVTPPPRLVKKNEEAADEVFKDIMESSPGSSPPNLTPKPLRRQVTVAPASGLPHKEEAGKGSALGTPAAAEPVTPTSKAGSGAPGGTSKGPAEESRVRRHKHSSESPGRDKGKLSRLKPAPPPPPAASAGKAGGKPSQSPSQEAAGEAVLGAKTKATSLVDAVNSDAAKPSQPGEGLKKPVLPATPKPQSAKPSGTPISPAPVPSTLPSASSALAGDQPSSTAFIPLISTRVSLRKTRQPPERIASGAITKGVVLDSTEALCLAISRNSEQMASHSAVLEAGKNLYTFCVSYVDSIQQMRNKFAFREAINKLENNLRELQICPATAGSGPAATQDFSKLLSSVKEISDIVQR
T24 sequence (P22455 22-802): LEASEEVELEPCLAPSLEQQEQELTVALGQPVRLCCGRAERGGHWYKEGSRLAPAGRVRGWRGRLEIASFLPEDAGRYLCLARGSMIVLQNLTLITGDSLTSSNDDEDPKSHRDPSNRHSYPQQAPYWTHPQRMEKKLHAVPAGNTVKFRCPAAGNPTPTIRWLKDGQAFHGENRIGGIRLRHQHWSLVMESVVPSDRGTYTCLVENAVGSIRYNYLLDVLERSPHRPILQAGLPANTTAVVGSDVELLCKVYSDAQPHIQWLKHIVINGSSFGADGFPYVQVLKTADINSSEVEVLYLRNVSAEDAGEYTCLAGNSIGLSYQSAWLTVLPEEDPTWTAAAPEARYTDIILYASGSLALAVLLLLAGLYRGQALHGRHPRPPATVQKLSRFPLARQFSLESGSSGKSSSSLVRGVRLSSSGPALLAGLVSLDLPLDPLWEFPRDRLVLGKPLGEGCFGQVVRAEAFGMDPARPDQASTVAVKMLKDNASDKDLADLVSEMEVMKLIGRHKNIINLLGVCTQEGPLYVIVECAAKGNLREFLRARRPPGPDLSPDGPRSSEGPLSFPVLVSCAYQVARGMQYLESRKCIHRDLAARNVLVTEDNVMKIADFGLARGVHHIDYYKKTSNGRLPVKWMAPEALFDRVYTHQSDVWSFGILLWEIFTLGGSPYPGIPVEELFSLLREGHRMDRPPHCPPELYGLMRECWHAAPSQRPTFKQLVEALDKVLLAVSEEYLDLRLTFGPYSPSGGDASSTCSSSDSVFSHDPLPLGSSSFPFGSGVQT
T4 sequence (Q15208 whole entry): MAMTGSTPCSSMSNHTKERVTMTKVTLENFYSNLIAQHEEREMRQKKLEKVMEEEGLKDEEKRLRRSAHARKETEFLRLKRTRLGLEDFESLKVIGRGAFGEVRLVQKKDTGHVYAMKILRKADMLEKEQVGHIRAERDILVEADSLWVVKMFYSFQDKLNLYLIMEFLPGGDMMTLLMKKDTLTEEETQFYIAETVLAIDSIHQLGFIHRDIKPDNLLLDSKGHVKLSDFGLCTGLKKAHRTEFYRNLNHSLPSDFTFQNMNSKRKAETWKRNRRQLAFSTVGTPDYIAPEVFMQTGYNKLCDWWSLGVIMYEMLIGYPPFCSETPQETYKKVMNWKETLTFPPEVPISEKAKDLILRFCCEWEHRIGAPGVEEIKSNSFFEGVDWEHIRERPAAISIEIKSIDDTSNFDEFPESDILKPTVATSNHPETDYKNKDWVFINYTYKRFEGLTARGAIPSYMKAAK
T19 sequence (Q96GD4 whole entry): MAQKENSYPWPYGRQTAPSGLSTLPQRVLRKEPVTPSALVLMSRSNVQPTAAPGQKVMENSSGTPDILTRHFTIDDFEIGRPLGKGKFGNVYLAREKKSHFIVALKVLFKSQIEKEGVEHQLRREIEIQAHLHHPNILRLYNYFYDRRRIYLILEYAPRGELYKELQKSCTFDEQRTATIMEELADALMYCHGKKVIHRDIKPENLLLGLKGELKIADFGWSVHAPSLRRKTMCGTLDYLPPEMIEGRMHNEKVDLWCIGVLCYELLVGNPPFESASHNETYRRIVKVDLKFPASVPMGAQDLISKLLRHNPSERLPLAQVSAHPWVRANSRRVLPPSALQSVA
T28 sequence (P49759 whole entry): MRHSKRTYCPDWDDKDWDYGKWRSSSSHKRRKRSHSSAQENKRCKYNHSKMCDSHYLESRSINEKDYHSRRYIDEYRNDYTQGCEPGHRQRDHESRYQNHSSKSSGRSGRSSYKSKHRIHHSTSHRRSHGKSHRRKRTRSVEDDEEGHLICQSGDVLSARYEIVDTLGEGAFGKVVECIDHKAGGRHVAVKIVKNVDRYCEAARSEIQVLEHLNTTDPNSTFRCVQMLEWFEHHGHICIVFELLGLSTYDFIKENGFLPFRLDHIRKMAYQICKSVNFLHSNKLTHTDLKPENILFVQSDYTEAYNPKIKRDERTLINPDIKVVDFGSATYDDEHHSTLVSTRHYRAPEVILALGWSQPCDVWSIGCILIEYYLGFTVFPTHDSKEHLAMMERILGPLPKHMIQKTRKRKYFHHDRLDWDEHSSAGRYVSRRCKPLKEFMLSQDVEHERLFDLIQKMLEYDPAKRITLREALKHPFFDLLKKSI

**Q.** Which results are given for `C=CC(=O)N1CCC[C@@H](n2nc(-c3ccc(OCc4cccc(C)n4)c(Cl)c3)c3c(N)ncnc32)C1` [CHMFL-EGFR-26]?
**A.** remaining binding at 1 µM (PFTK1): 100%; remaining binding at 1 µM (LOK): 0.2%; remaining binding at 1 µM [1]: 100%; remaining binding at 1 µM (NDR1): 71%; remaining binding at 1 µM (p38-alpha): 86%; remaining binding at 1 µM (RIPK2): 13%; remaining binding at 1 µM (IRAK1): 100%; remaining binding at 1 µM (MEK3): 98%; remaining binding at 1 µM (MAST1): 93%; remaining binding at 1 µM (BRAF(V600E)): 62%; remaining binding at 1 µM (KIT(V559D,T670I)): 100%; remaining binding at 1 µM (MYLK2): 100%; remaining binding at 1 µM (PIK3CA): 100%; remaining binding at 1 µM [2]: 95%; fold more potent than AZD9291 (H1975 (EGFRL858R/T790M); H1975 GI50): about 170 fold; GI50 (H1975 (EGFRL858R/T790M); Homo sapiens, NCI-H1975, H1975 (EGFRL858R/T790M), 72 hours, triplet testing): < 0.0003 µM; CLz ([3]; P.O. (10mg/kg)): 42.2 ± 7.5 mL/min/kg; Vz ([3]; P.O. (10mg/kg)): 2.62 ± 0.14 L/kg; T1/2 ([3]; P.O. (10mg/kg), 10 mg/kg): 48 min; half-life ([3]; rat, in vivo, iv, 1 mg/kg, I.V (1mg/kg)): 18.6 ± 4.92 min; AUC(0-inf) ([3]; rat, in vivo, iv, I.V (1mg/kg)): 1190 ± 143 ng·h/mL; AUC(0-t) ([3]; rat, in vivo, iv, I.V (1mg/kg)): 1190 ± 142 ng·h/mL; Cmax ([3]; rat, in vivo, iv, I.V (1mg/kg)): 10600 ± 1650 ng/mL; Tmax ([3]; rat, in vivo, iv, I.V (1mg/kg)): 1.02 min; clearance ([3]; rat, in vivo, iv, I.V (1mg/kg), read-out: CLz (converted)): 14.2 mL/min/kg; MRT last ([3]; rat, in vivo, iv, I.V (1mg/kg)): 10.8 ± 2.1 min; Vd ([3]; rat, in vivo, iv, I.V (1mg/kg), read-out: Vz): 0.38 ± 0.13 L/kg; half-life ([3]; rat, in vivo, po, 10 mg/kg, P.O. (10mg/kg)): 44.4 ± 9 min; AUC(0-inf) [3, 5]: 4040 ± 717 ng·h/mL; AUC(0-t) [3, 5]: 4040 ± 716 ng·h/mL; Cmax [3, 5]: 5210 ± 859 ng/mL; Tmax [3, 5]: 19.8 ± 8.4 min; bioavailability ([3]; rat, in vivo, po, P.O. (10mg/kg), read-out: F% (bioavailability)): 33.8%; MRT last [3, 5]: 43.2 ± 4.14 min; remaining binding at 1 µM (EGFR(G719C)): 16%; remaining binding at 1 µM (AURKA): 97%; remaining binding at 1 µM (VEGFR2): 100%; remaining binding at 1 µM (PIK3C2G): 100%; remaining binding at 1 µM (AURKB): 77%; remaining binding at 1 µM (STK35): 23%; remaining binding at 1 µM (FLT3(D835H)): 100%; remaining binding at 1 µM (SYK): 94%; remaining binding at 1 µM (LZK): 86%; remaining binding at 1 µM (FGFR4): 100%; remaining binding at 1 µM [4]: 97%; remaining binding at 1 µM (BMPR1B): 97%; remaining binding at 1 µM (CDK5): 100%; remaining binding at 1 µM (CLK1): 94%; remaining binding at 1 µM (BMX): 27%; GI50 (CHO): > 10 µM
